Assay results taken from the NIST ThermoML archive (doi:10.1016/j.fluid.2016.01.001).
Numbers after ± are expanded uncertainties.

Settings: Capillary rise

COC [dimethyl ether]
Settings	surface tension liquid-gas [mN/m]
214 K	24.45 ± 0.07
220 K	23.51 ± 0.07
225 K	22.69 ± 0.07
230 K	21.87 ± 0.07
235 K	21.15 ± 0.07
240 K	20.43 ± 0.07
245 K	19.7 ± 0.07
250 K	18.92 ± 0.06
255 K	18.15 ± 0.06
260 K	17.39 ± 0.06
265 K	16.62 ± 0.06
270 K	15.93 ± 0.06
275 K	15.19 ± 0.06
280 K	14.47 ± 0.06
285 K	13.73 ± 0.06
290 K	13.02 ± 0.06
295 K	12.28 ± 0.06
300 K	11.57 ± 0.06
305 K	10.85 ± 0.06
315 K	9.497 ± 0.055
320 K	8.813 ± 0.055
325 K	8.137 ± 0.054
330 K	7.476 ± 0.053
335 K	6.814 ± 0.053
340 K	6.164 ± 0.052
345 K	5.528 ± 0.052
350 K	4.899 ± 0.051
355 K	4.307 ± 0.05
360 K	3.707 ± 0.05
365 K	3.142 ± 0.049
370 K	2.575 ± 0.049
375 K	2.042 ± 0.048
380 K	1.516 ± 0.048
385 K	1.054 ± 0.048
390 K	0.614 ± 0.047

CCCC [butane]
Settings	surface tension liquid-gas [mN/m]
278.15 K	14.57 ± 0.06
283.15 K	13.96 ± 0.06
288.15 K	13.37 ± 0.06
293.15 K	12.79 ± 0.06
298.15 K	12.17 ± 0.06
303.15 K	11.53 ± 0.06
308.15 K	10.94 ± 0.06
313.15 K	10.35 ± 0.06
318.15 K	9.851 ± 0.058
323.15 K	9.286 ± 0.057
328.15 K	8.705 ± 0.057
333.15 K	8.14 ± 0.056
338.15 K	7.593 ± 0.056
343.15 K	7.043 ± 0.055
348.15 K	6.516 ± 0.055
353.15 K	5.991 ± 0.054
358.15 K	5.479 ± 0.054
363.15 K	4.981 ± 0.053
368.15 K	4.483 ± 0.053
373.15 K	4.003 ± 0.053
378.15 K	3.515 ± 0.052
383.15 K	3.049 ± 0.052
388.15 K	2.578 ± 0.051
393.15 K	2.091 ± 0.051
398.15 K	1.679 ± 0.051
403.15 K	1.29 ± 0.05
408.15 K	0.923 ± 0.05
413.15 K	0.583 ± 0.088
417.15 K	0.341 ± 0.088
419.75 K	0.186 ± 0.088
420.35 K	0.157
420.85 K	0.129
421.08 K	0.118
421.48 K	0.1
